Source: patent publication US12139520B2 (priority 2020, dated 2024)
Bridge positions count the residues as written; N and C are the ends. Square brackets hold non-standard residues; d marks the D form. Peptide text beside a SMILES is read from it. Hyp = O=C(O)[C@@H]1C[C@@H](O)CN1; Cit = NC(=O)NCCC[C@H](N)C(=O)O

Assays:
[1] = Physical stability of peptide analogues (Thioflavin T fibrillation); type: physicochemical; settings: maximum ThT signal normalized between hAMY maximum and buffer background; 40° C., shaking, four days; pH 7 per table title
How it was run: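 1 h in 50 mM NaOAc pH 4 / 50 mM NaPi pH 7; + ThT 4 μM final; 40 °C, 700 rpm linear shake 5 min pre-read; ex 450, em 480 nm q10 min × 4 d; LOESS smoothing; max signal normalised to hAMY max vs buffer blank.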

hAMY3 receptor = target: T1, hAMY3 receptor (Homo sapiens, UniProt O60896+P30988); assay: cAMP assay for in vitro receptor activation, hAMY3-R; type: cell-based; settings: cAMP assay, hAMY3 receptor; read-out: hAMY3R EC50
T1 sequence (P30988 25-474): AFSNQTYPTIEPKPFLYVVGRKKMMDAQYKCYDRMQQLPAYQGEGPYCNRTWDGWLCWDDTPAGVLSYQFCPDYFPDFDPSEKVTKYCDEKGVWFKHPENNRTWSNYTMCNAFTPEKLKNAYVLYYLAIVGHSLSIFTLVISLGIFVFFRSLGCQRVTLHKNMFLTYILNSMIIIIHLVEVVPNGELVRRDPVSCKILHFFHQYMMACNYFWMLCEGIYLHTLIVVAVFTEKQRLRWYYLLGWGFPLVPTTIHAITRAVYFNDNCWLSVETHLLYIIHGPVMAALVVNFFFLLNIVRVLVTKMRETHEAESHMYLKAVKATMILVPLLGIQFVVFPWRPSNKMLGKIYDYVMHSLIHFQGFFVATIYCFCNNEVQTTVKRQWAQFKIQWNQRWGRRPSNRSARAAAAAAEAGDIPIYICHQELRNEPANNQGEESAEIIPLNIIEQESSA
T1 sequence (O60896 24-148 partner): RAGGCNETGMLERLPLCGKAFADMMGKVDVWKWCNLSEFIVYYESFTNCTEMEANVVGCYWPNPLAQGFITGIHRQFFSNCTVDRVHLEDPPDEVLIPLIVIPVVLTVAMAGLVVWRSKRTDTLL
How it was run: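 Monoclonal cell line stably overexpressing human AMY3 receptor, 2000 cells/well in DPBS with 0.05% casein and 0.5 mM IBMX. Stimulated 30 min at room temperature with graded compound doses, human amylin as positive control. cAMP accumulation read by TR-FRET after one hour.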

Row | SMILES | Max ThT signal (%) [1] | EC50 (hAMY3 receptor)
1 | CC[C@H](C)[C@H](NC(=O)[C@H](CCC(N)=O)NC(=O)[C@H](Cc1c[nH]cn1)NC(=O)[C@H](C)NC(=O)[C@H](CC(C)C)NC(=O)[C@H](CCCNC(=N)N)NC(=O)[C@H](CCC(N)=O)NC(=O)[C@@H](NC(=O)[C@@H](NC(=O)[C@@H]1CSSC[C@H](NC(=O)CN)C(=O)N[C@@H](CCCNC(=N)N)C(=O)N[C@@H]([C@@H](C)O)C(=O)NCC(=O)N[C@@H]([C@@H](C)O)C(=O)N1)[C@@H](C)O)C(C)C)C(=O)N[C@@H](Cc1ccc(O)cc1)C(=O)N[C@@H](CCC(N)=O)C(=O)N[C@@H](Cc1ccccc1)C(=O)N[C@H](C(=O)N[C@@H](CC(=O)O)C(=O)N[C@@H](CCCCN)C(=O)N[C@@H](Cc1ccccc1)C(=O)N[C@@H](CCCCN)C(=O)N[C@@H](CC(=O)O)C(=O)N[C@@H](CC(N)=O)C(=O)N[C@H](C(=O)N[C@@H](C)C(=O)N1CCC[C@H]1C(=O)N[C@@H](CCCNC(=N)N)C(=O)N[C@@H](CO)C(=O)N[C@@H](CCCCN)C(=O)N[C@H](C(=O)N[C@@H](CO)C(=O)N1CCC[C@H]1C(=O)N[C@@H](CCC(N)=O)C(=O)N[C@H](C(=O)N[C@@H](Cc1c[nH]c2ccccc12)C(N)=O)[C@@H](C)O)[C@@H](C)CC)C(C)C)[C@@H](C)O [compound 184] (H-GCRTGTCTVQRLAHQIYQFTDKFKDNVAPRSKISPQTW-NH2; disulfide 2-7; N-terminus assumed) | 0.800% | 0.09 nM
2 | CC[C@H](C)[C@H](NC(=O)[C@H](CCC(N)=O)NC(=O)[C@H](Cc1c[nH]cn1)NC(=O)[C@H](C)NC(=O)[C@H](CC(C)C)NC(=O)[C@H](CCCNC(N)=O)NC(=O)[C@H](CCC(N)=O)NC(=O)[C@@H](NC(=O)[C@@H](NC(=O)[C@@H]1CSSC[C@H](NC(=O)CN)C(=O)N[C@@H](CCCNC(=N)N)C(=O)N[C@@H](Cc2ccccc2)C(=O)NCC(=O)N[C@@H]([C@@H](C)O)C(=O)N1)[C@@H](C)O)C(C)C)C(=O)N[C@@H](Cc1ccc(O)cc1)C(=O)N[C@@H](CCC(N)=O)C(=O)N[C@@H](Cc1ccccc1)C(=O)N[C@H](C(=O)N[C@@H](CC(=O)O)C(=O)N[C@@H](CCCCN)C(=O)N[C@@H](CC(=O)O)C(=O)N[C@@H](CCCCN)C(=O)N[C@@H](CC(=O)O)C(=O)N[C@@H](CC(N)=O)C(=O)N[C@H](C(=O)N[C@@H](C)C(=O)N1CCC[C@H]1C(=O)N[C@@H](CCCNC(=N)N)C(=O)N[C@H](C(=O)N[C@@H](CCCCN)C(=O)N[C@H](C(=O)NCC(=O)N1CCC[C@H]1C(=O)N[C@@H](CCC(N)=O)C(=O)NCC(=O)N1C[C@H](O)C[C@H]1C(N)=O)C(C)C)[C@@H](C)O)C(C)C)[C@@H](C)O [compound 259] (H-GCRFGTCTVQ[Cit]LAHQIYQFTDKDKDNVAPRTKVGPQG[Hyp]-NH2; disulfide 2-7) | 13.450% | 0.013 nM
3 | CC[C@H](C)[C@H](NC(=O)[C@H](CCC(N)=O)NC(=O)[C@H](Cc1c[nH]cn1)NC(=O)[C@H](C)NC(=O)[C@H](CC(C)C)NC(=O)[C@H](CCCNC(=N)N)NC(=O)[C@H](CCC(N)=O)NC(=O)[C@@H](NC(=O)[C@@H](NC(=O)[C@@H]1CSSC[C@H](NC(=O)CN)C(=O)N[C@@H](CCCNC(=N)N)C(=O)N[C@@H]([C@@H](C)O)C(=O)NCC(=O)N[C@@H]([C@@H](C)O)C(=O)N1)[C@@H](C)O)C(C)C)C(=O)N[C@@H](Cc1ccc(O)cc1)C(=O)N[C@@H](CCC(N)=O)C(=O)N[C@@H](Cc1ccccc1)C(=O)N[C@H](C(=O)N[C@@H](CC(=O)O)C(=O)N[C@@H](CCCCN)C(=O)N[C@@H](CC(=O)O)C(=O)N[C@@H](CCCCN)C(=O)N[C@@H](CC(=O)O)C(=O)N[C@@H](CC(N)=O)C(=O)N[C@H](C(=O)N[C@@H](C)C(=O)N1CCC[C@H]1C(=O)N[C@@H](CCCNC(=N)N)C(=O)N[C@H](C(=O)N[C@@H](CC(N)=O)C(=O)N[C@H](C(=O)NCC(=O)N1CCC[C@H]1C(=O)N[C@@H](CCC(N)=O)C(=O)NCC(=O)N[C@@H](Cc1ccc(O)cc1)C(N)=O)C(C)C)[C@@H](C)O)C(C)C)[C@@H](C)O [compound 109] (H-GCRTGTCTVQRLAHQIYQFTDKDKDNVAPRTNVGPQGY-NH2; disulfide 2-7; N-terminus assumed) | 9.300% | 0.02 nM
4 | CC[C@H](C)[C@H](NC(=O)[C@H](CCC(N)=O)NC(=O)[C@H](Cc1c[nH]cn1)NC(=O)[C@H](C)NC(=O)[C@H](CC(C)C)NC(=O)[C@H](CCCNC(=N)N)NC(=O)[C@H](CCC(N)=O)NC(=O)[C@@H](NC(=O)[C@@H](NC(=O)[C@@H]1CSSC[C@H](NC(=O)CN)C(=O)N[C@@H](CCCNC(=N)N)C(=O)N[C@@H](Cc2ccccc2)C(=O)NCC(=O)N[C@@H]([C@@H](C)O)C(=O)N1)[C@@H](C)O)C(C)C)C(=O)N[C@@H](Cc1ccc(O)cc1)C(=O)N[C@@H](CCC(N)=O)C(=O)N[C@@H](Cc1ccccc1)C(=O)N[C@H](C(=O)N[C@@H](CC(=O)O)C(=O)N[C@@H](CCCCN)C(=O)N[C@@H](CC(=O)O)C(=O)N[C@@H](CCCCN)C(=O)N[C@@H](CC(=O)O)C(=O)N[C@@H](CC(N)=O)C(=O)N[C@H](C(=O)N[C@@H](C)C(=O)N1CCC[C@H]1C(=O)N[C@@H](CCCNC(=N)N)C(=O)N[C@@H](CO)C(=O)N[C@@H](CC(N)=O)C(=O)N[C@H](C(=O)N[C@@H](CO)C(=O)N1CCC[C@H]1C(=O)N[C@@H](CCC(N)=O)C(=O)NCC(=O)N1C[C@H](O)C[C@H]1C(N)=O)C(C)C)C(C)C)[C@@H](C)O [compound 145] (H-GCRFGTCTVQRLAHQIYQFTDKDKDNVAPRSNVSPQG[Hyp]-NH2; disulfide 2-7; N-terminus assumed) | 2.000% | 0.039 nM

Second part, the compound after the results:

Row | Max ThT signal (%) [1] | EC50 (hAMY3 receptor) | SMILES
5 | 3.300% | 0.013 nM | CC[C@H](C)[C@H](NC(=O)[C@H](CCC(N)=O)NC(=O)[C@H](Cc1c[nH]cn1)NC(=O)[C@H](C)NC(=O)[C@H](CC(C)C)NC(=O)[C@H](CCCNC(=N)N)NC(=O)[C@H](CCC(N)=O)NC(=O)[C@@H](NC(=O)[C@@H](NC(=O)[C@@H]1CSSC[C@H](NC(=O)CN)C(=O)N[C@@H](CCCNC(=N)N)C(=O)N[C@@H](Cc2ccccc2)C(=O)NCC(=O)N[C@@H]([C@@H](C)O)C(=O)N1)[C@@H](C)O)C(C)C)C(=O)N[C@@H](Cc1ccc(O)cc1)C(=O)N[C@@H](CCC(N)=O)C(=O)N[C@@H](Cc1ccccc1)C(=O)N[C@H](C(=O)N[C@@H](CC(=O)O)C(=O)N[C@@H](CCCCN)C(=O)N[C@@H](CC(=O)O)C(=O)N[C@@H](CCCCN)C(=O)N[C@@H](CC(=O)O)C(=O)N[C@@H](CC(N)=O)C(=O)N[C@H](C(=O)N[C@@H](C)C(=O)N1CCC[C@H]1C(=O)N[C@@H](CCCNC(=N)N)C(=O)N[C@H](C(=O)N[C@@H](CC(N)=O)C(=O)N[C@H](C(=O)N[C@@H](CO)C(=O)N1CCC[C@H]1C(=O)N[C@@H](CC(N)=O)C(=O)NCC(=O)N[C@@H](Cc1ccc(O)cc1)C(N)=O)[C@@H](C)CC)[C@@H](C)O)C(C)C)[C@@H](C)O [compound 366] (H-GCRFGTCTVQRLAHQIYQFTDKDKDNVAPRTNISPNGY-NH2; disulfide 2-7; N-terminus assumed)
6 | 21.150% | 0.006 nM | CC[C@H](C)[C@H](NC(=O)[C@H](CC(N)=O)NC(=O)[C@@H](NC(=O)[C@H](CCCNC(=N)N)NC(=O)[C@@H]1CCCN1C(=O)[C@H](C)NC(=O)[C@@H](NC(=O)[C@H](CC(N)=O)NC(=O)[C@H](CC(=O)O)NC(=O)[C@H](CCCCN)NC(=O)[C@H](CC(=O)O)NC(=O)[C@H](CCCCN)NC(=O)[C@H](CC(=O)O)NC(=O)[C@@H](NC(=O)[C@H](Cc1ccccc1)NC(=O)[C@H](CCC(N)=O)NC(=O)[C@H](Cc1ccc(O)cc1)NC(=O)[C@@H](NC(=O)[C@H](CCC(N)=O)NC(=O)[C@H](Cc1c[nH]cn1)NC(=O)[C@H](C)NC(=O)[C@H](CC(C)C)NC(=O)[C@H](Cc1c[nH]c2ccccc12)NC(=O)[C@H](CCC(N)=O)NC(=O)[C@@H](NC(=O)[C@@H](NC(=O)[C@@H]1CSSC[C@H](NC(=O)CN)C(=O)N[C@@H](CCCNC(=N)N)C(=O)N[C@@H](Cc2ccccc2)C(=O)NCC(=O)N[C@@H]([C@@H](C)O)C(=O)N1)[C@@H](C)O)C(C)C)[C@@H](C)CC)[C@@H](C)O)C(C)C)[C@@H](C)O)C(=O)NCC(=O)N1CCC[C@H]1C(=O)N[C@@H](CC(N)=O)C(=O)NCC(=O)N1C[C@H](O)C[C@H]1C(N)=O [compound 331] (H-GCRFGTCTVQWLAHQIYQFTDKDKDNVAPRTNIGPNG[Hyp]-NH2; disulfide 2-7; N-terminus assumed)
